{
  "source": "paper PMC11768184",
  "about": "“Non-Steroidal Anti-Inflammatory Drugs Are Inhibitors of the Intestinal Proton-Coupled Amino Acid Transporter (PAT1): Ibuprofen and Diclofenac Are Non-Translocated Inhibitors” (Pharmaceutics, 2025)",
  "assay_type_in_all_cases": "cell-based",
  "key": {"[1]": {"biological_target": "T1, proton-coupled amino acid transporter (hPAT1) (Homo sapiens, UniProt Q7Z2H8)", "T1 construct": "gene SLC36A1", "T1 sequence (Q7Z2H8 whole entry)": "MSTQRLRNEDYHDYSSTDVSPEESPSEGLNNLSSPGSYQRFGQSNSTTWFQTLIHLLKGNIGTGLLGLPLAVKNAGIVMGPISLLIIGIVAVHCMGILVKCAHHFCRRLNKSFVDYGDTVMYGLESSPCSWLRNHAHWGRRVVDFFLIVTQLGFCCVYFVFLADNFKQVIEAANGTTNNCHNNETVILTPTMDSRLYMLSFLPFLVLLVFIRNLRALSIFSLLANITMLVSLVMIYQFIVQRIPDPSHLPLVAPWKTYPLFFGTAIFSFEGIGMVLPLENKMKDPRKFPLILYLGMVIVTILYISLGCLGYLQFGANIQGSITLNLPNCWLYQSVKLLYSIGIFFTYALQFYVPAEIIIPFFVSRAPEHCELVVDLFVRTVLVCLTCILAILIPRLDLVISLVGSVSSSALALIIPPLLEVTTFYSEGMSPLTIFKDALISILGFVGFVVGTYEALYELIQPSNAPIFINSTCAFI", "assay": "concentration-dependent inhibition of [3H]-proline uptake in Caco-2 cells, pH […]"}, "[2]": {"biological_target": "T1, proton-coupled amino acid transporter (hPAT1)", "assay": "TEVC in hPAT1-expressing Xenopus oocytes; [3H]-proline uptake inhibition and kinetics in Caco-2 cells, pH […]"}, "[3]": {"biological_target": "T1, proton-coupled amino acid transporter (hPAT1)", "assay": "TEVC in hPAT1-expressing Xenopus oocytes; [3H]-proline uptake inhibition in Caco-2 cells, pH […]"}},
  "data": [
    {"smiles": "CC(C(=O)O)c1ccc(-c2ccccc2)c(F)c1", "note": "(racemic) [flurbiprofen]", "values": [
      {"measurement": "IC50", "setting": "[1]", "value": 280, "unit": "µM"}
    ]},
    {"smiles": "CC(C)Cc1ccc(C(C)C(=O)O)cc1", "note": "(racemic) [ibuprofen]", "values": [
      {"measurement": "IC50", "setting": "[2]", "value": 954, "unit": "µM"}
    ]},
    {"smiles": "O=C(O)Cc1ccccc1Nc1c(Cl)cccc1Cl", "note": "[diclofenac]", "values": [
      {"measurement": "IC50", "setting": "[3]", "value": 272, "unit": "µM"}
    ]}
  ]
}
